US9895338B1, “Cobalt-polypyridyl complex for treatment of cancer, a pharmaceutical composition and a kit comprising it” (Macau University of Science and Technology, priority 2016, dated 2018)

Columns and labels:
[1] = Body weight in mouse lung cancer xenograft model; assay type: in vivo; conditions: IP 40 mg/kg/day, tumor-bearing mice
From the text: The mice were maintained under specific pathogen-free condition in a 12-h light-dark cycle. Experimental conditions were followed in accordance to the “Institutional AnimalCare and User Committee guidelines” of the Macau University of Science and Technology. Xenograft mouse model was constructed as previously described (Wong, V. K. et al., Oncotarget, 2016, 7, 9907-9924). LLC-1 Lewis lung cancer cells (1×10^6 cells) were subcutaneously injected in the right dorsal region of the mice. After tumors grew to about 100 mm^3, the mice were randomly divided into 3 groups: 1) the control group, 2) 40 mg/kg cobalt-polypyridyl complex of Formula (IV) group, and 3) 40 mg/kg cobalt-polypyridyl complex of Formula (IV) as chloride, also referenced as (IV)-Cl (water soluble form) group. The cobalt-polypyridyl complex of Formula (IV) was dissolved in 100 μL buffer (PEG400:EtOH:ddH2O=6:1:3), whereas (IV)-Cl (water soluble form) was dissolved in ddH2O. The complexes were then intraperitoneal injected in mice every day. The body weight of each mouse was recorded with the tumor volume determined by Vernier caliper using the formula of L×W^2×0.52, where L is the longest diameter of tumor and W is the shortest diameter of tumor. Mice with tumor implants were sacrificed after 10 days when the tumor size of vehicle control group reached above 1000 mm^3 due to animal ethical issue.

[2] = system: OV2008 cervical cancer cells; assay: MTT cytotoxicity, OV2008 (cisplatin-sensitive); assay type: cell-based; conditions: 72 h
Method: (§1) All prepared cobalt-polypyridyl complexes were dissolved in DMSO at a final concentration of 50 mmol/L and stored at −20° C. before use. Cytotoxicity was assessed by using the 3-(4,5-dimethylthiazol-2-yl)-2,5-diphenyltetrazolium bromide (MTT) (5.0 mg/ml) assay as previously described (Wong, V. K. et al., Cell Death Dis, 2013, 4, e720). Briefly, 4×10^3 cells per well were seeded in 96-well plates before drug treatments. After overnight culture, the cells were then exposed to different concentrations of selected compounds (0.039-100 μmol/L) for 72 h. Cells without drug treatment were used as control. Subsequently, MTT (10 μL) solution was added to each well and incubated at 37° C. for 4 h followed by the addition of 100 μL solubilization buffer (10% SDS in 0.01 mol/L HCl) and overnight incubation. A570 nm was then determined in each well on the next day. The percentage of cell viability was calculated using the following formula: Cell viability (%)=Atreated/Acontrol×100. Data were obtained from three independent experiments.
(§2) Cisplatin-sensitive or -resistant A2780, OV2008 and C13 cancer cells were provided by Prof. Benjamin Tsang (Department of Obstetrics and Gynecology and Department of Cellular and Molecular Medicine, University of Ottawa, Canada). HCT116 p53^+/+ and p53^−/− isogenic human colon cancer cells were provided by Professor Bert Vogelstein (Ludwig Center at Johns Hopkins, Howard Hughes Medical Institute, USA). All media were supplemented with 10% fetal bovine serum and the antibiotics penicillin (50 U/ml) and streptomycin (50 μg/ml; Invitrogen, Paisley, Scotland, UK). All cell cultures were incubated at 37° C. in a 5% humidified CO2 incubator.

[3] = system: MCF-7 (breast cancer); assay: MTT cytotoxicity assay, MCF-7; assay type: cell-based; conditions: MCF-7, MTT, 72 h
Method: as §1, with “experiments. Cells include HeLa cells (cervical cancer), MCF-7 (breast cancer), H1299, H1975, A549 and LLC-1 (lung cancer), HepG2 and Hep3B (liver cancer) and LO2 (normal human hepatocytes).” for “experiments.”

[4] = system: OV2008/C13 cervical cancer cells; assay: MTT cytotoxicity, OV2008/C13 (cisplatin-resistant); assay type: cell-based
Method: as §1, §2

[5] = system: Taxol-resistant HCT8 cancer cells; assay: MTT cytotoxicity, taxol-resistant HCT8; assay type: cell-based
Method: as §1
(§3) All cells were obtained from the American Type Culture Collection (Rockville, Md., USA) unless otherwise specified. Immortalized wild-type and Atg7-deficient mouse embryonic fibroblasts (MEFs) were provided by Professor Masaaki Komatsu (Juntendo University, School of Medicine, Japan). Taxol-resistant types of A549, MCF-7, HCT-8 cancer cells, cisplatin-resistant SGC7901 cancer cells were purchased from KeyGEN BioTECH, China.

[6] = system: Hep 3B (liver cancer); assay: MTT cytotoxicity assay, Hep3B; assay type: cell-based; conditions: 72 h
Method: as §1, with “experiments. Cells include HeLa cells (cervical cancer), MCF-7 (breast cancer), H1299, H1975, A549 and LLC-1 (lung cancer), HepG2 and Hep3B (liver cancer) and LO2 (normal human hepatocytes).” for “experiments.”

[7] = system: H1975 (lung cancer); assay: MTT cytotoxicity assay, H1975; assay type: cell-based; conditions: 72 h
Method: as §1, with “experiments. Cells include HeLa cells (cervical cancer), MCF-7 (breast cancer), H1299, H1975, A549 and LLC-1 (lung cancer), HepG2 and Hep3B (liver cancer) and LO2 (normal human hepatocytes).” for “experiments.”

[8] = system: Taxol-sensitive A549 cancer cells; assay: MTT cytotoxicity, taxol-sensitive A549; assay type: cell-based; conditions: 72 h
Method: as §1

[9] = system: HCT116 p53^−/− colon cancer cells; assay: MTT cytotoxicity, HCT116 p53-/-; assay type: cell-based, human
Method: as §1, §2

[10] = system: cisplatin-sensitive SGC-7901 gastric cancer cells; assay: MTT cytotoxicity, cisplatin-sensitive SGC-7901; assay type: cell-based; conditions: SGC-7901, MTT, 72 h
Method: as §1

[11] = system: cisplatin-resistant SGC-7901 gastric cancer cells; assay: MTT cytotoxicity, cisplatin-resistant SGC-7901; assay type: cell-based
Method: as §1, §3

[12] = system: H1299 (lung cancer); assay: MTT cytotoxicity assay, H1299; assay type: cell-based, human; conditions: 72 h
Method: as §1, with “experiments. Cells include HeLa cells (cervical cancer), MCF-7 (breast cancer), H1299, H1975, A549 and LLC-1 (lung cancer), HepG2 and Hep3B (liver cancer) and LO2 (normal human hepatocytes).” for “experiments.”

[13] = system: LLC-1 (lung cancer); assay: MTT cytotoxicity assay, LLC-1; assay type: cell-based; conditions: LLC-1, MTT, 72 h
Method: as §1, with “experiments. Cells include HeLa cells (cervical cancer), MCF-7 (breast cancer), H1299, H1975, A549 and LLC-1 (lung cancer), HepG2 and Hep3B (liver cancer) and LO2 (normal human hepatocytes).” for “experiments.”

[14] = system: Taxol-sensitive MCF-7 cancer cells; assay: MTT cytotoxicity, taxol-sensitive MCF-7; assay type: cell-based; conditions: MCF-7, MTT, 72 h
Method: as §1

[15] = system: HCT116 p53^+/+ colon cancer cells; assay: MTT cytotoxicity, HCT116 p53+/+; assay type: cell-based, human; conditions: 72 h
Method: as §1, §2

[16] = system: cisplatin-resistant A2780 ovarian cancer cells; assay: MTT cytotoxicity, cisplatin-resistant A2780; assay type: cell-based
Method: as §1, §2

[17] = system: HeLa cells (cervical cancer); assay: MTT cytotoxicity assay, HeLa; assay type: cell-based; conditions: 72 h
Method: as §1, with “experiments. Cells include HeLa cells (cervical cancer), MCF-7 (breast cancer), H1299, H1975, A549 and LLC-1 (lung cancer), HepG2 and Hep3B (liver cancer) and LO2 (normal human hepatocytes).” for “experiments.”

[18] = system: Taxol-resistant A549 cancer cells; assay: MTT cytotoxicity, taxol-resistant A549; assay type: cell-based
Method: as §1, §3

[19] = system: Taxol-sensitive HCT8 cancer cells; assay: MTT cytotoxicity, taxol-sensitive HCT8; assay type: cell-based; conditions: 72 h
Method: as §1

[20] = system: Taxol-resistant MCF-7 cancer cells; assay: MTT cytotoxicity, taxol-resistant MCF-7; assay type: cell-based
Method: as §1, §3

[21] = system: cisplatin-sensitive A2780 ovarian cancer cells; assay: MTT cytotoxicity, cisplatin-sensitive A2780; assay type: cell-based; conditions: 72 h
Method: as §1, §2

[22] = system: A549 (lung cancer); assay: MTT cytotoxicity assay, A549; assay type: cell-based; conditions: 72 h
Method: as §1, with “experiments. Cells include HeLa cells (cervical cancer), MCF-7 (breast cancer), H1299, H1975, A549 and LLC-1 (lung cancer), HepG2 and Hep3B (liver cancer) and LO2 (normal human hepatocytes).” for “experiments.”

[23] = system: HepG2 (liver cancer); assay: MTT cytotoxicity assay, HepG2; assay type: cell-based; conditions: 72 h
Method: as §1, with “experiments. Cells include HeLa cells (cervical cancer), MCF-7 (breast cancer), H1299, H1975, A549 and LLC-1 (lung cancer), HepG2 and Hep3B (liver cancer) and LO2 (normal human hepatocytes).” for “experiments.”

[24] = system: LO2 (normal human hepatocytes); assay: MTT cytotoxicity assay, LO2; assay type: cell-based; conditions: 72 h
Method: as §1, with “experiments. Cells include HeLa cells (cervical cancer), MCF-7 (breast cancer), H1299, H1975, A549 and LLC-1 (lung cancer), HepG2 and Hep3B (liver cancer) and LO2 (normal human hepatocytes).” for “experiments.”

Cc1ccnc(-c2cc(C)ccn2)c1.Cc1ccnc(-c2cc(C)ccn2)c1.Cc1ccnc(-c2cc(C)ccn2)c1.[Cl-].[Cl-].[Cl-].[Co+3] [complex (IV)-Cl]
reduction in body weight [1]: no significant reduction in body weight

F[P-](F)(F)(F)(F)F.F[P-](F)(F)(F)(F)F.[Co+2].c1ccc(-c2ccccn2)nc1.c1ccc(-c2ccccn2)nc1.c1ccc(-c2ccccn2)nc1 [complex (V), [Co^II(N^N)3](PF6)2]
IC50 [2]: 18.9 µM | IC50 [3]: 15.8 µM | IC50 ([4]; OV2008/C13, MTT, 72 h): 14.9 µM | Resistant Factor ([4]; OV2008/C13 over OV2008): 0.79 | IC50 ([5]; HCT8, MTT, 72 h): 7.78 µM | Resistant Factor ([5]; HCT8, IC50 taxol-resistant over IC50 taxol-sensitive): 0.68 | IC50 [6]: 6.92 µM | IC50 [7]: 17 µM | IC50 [8]: 29.9 µM | Resistant Factor ([9]; HCT116 p53^−/− over HCT116 p53^+/+): 0.85 | IC50 ([9]; MTT, 72 h): 29.1 µM | IC50 [10]: 29.9 µM | IC50 ([11]; SGC-7901, MTT, 72 h): 29.9 µM | Resistant Factor ([11]; SGC-7901, cisplatin-resistant over cisplatin-sensitive): 1.00 | IC50 [12]: 9.4 µM | IC50 [13]: 17.2 µM | IC50 [14]: 13.4 µM | IC50 [15]: 34.3 µM | IC50 ([16]; A2780, MTT, 72 h): 31.6 µM | Resistant Factor ([16]; A2780, cisplatin-resistant over cisplatin-sensitive): 1.10 | IC50 [17]: 24.2 µM | IC50 ([18]; A549, MTT, 72 h): 7.85 µM | Resistant Factor ([18]; A549, IC50 taxol-resistant over IC50 taxol-sensitive): 0.26 | IC50 [19]: 11.4 µM | IC50 ([20]; MCF-7, MTT, 72 h): 16.8 µM | Resistant Factor ([20]; MCF-7, IC50 taxol-resistant over IC50 taxol-sensitive): 1.25 | IC50 [21]: 28.8 µM | IC50 [22]: 26.3 µM | IC50 [23]: 13.3 µM | IC50 [24]: 33.6 µM
